Measured values: patent US9101133B2, “Phenyl-substituted bicyclooctane-1,3-dione-derivatives” (BAYER INTELLECTUAL PROPERTY GMBH, priority 2010, dated 2015)

Legend:
Assay type in all cases: in vivo
ALOMY = assay: Herbicidal post-emergence action; conditions: 80 g/ha, visual assessment after about three weeks, 100% = plants have died
Description: (§1) 2. Herbicidal Post-Emergence Action
(§2) • Seeds of monocotylidonous and dicotylidonous weed and crop plants are placed in sandy loam in wood fibre pots, covered with soil and cultivated in a greenhouse under good growth conditions. Two to three weeks after sowing, the test plants are treated at the one-leaf stage. The test compounds, formulated as wettable powders (WP), are then with a water application rate of 600 l/ha (converted), with 0.2% of wetting agent added, sprayed onto the green parts of the plants in different amounts. After the test plants have been kept in the greenhouse under optimum growth conditions for about three weeks, the effect of the preparations is assessed visually in comparison to untreated controls (herbicidal effect in percent: 100% effect=the plants have died, 0% effect=like control plants). Post-Emergence, 80 g/ha

LOLMU = assay: Herbicidal post-emergence action; conditions: 80 g/ha, visual assessment after about three weeks, 100% = plants have died
Description: as §1, §2

ECHCG = assay: Herbicidal post-emergence action; conditions: 80 g/ha, visual assessment after about three weeks, 100% = plants have died
Description: as §1, §2

SETVI = assay: Herbicidal post-emergence action; conditions: visual assessment after about three weeks, 100% = plants have died; for herbicidal effect in percent, SETVI: 80 g/ha; for pest or weed control at 80 g/ha: 504 h, read-out: herbicidal effect in percent, SETVI
Description: as §1, §2

AVEFA = assay: Herbicidal post-emergence action; conditions: 80 g/ha, visual assessment after about three weeks, 100% = plants have died
Description: as §1, §2

[1] = tested on: monocotylidonous and dicotylidonous weed and crop plants; assay: Herbicidal pre-emergence action; conditions: 320 g/ha, visual assessment after three weeks, 100% = plants have died; for herbicidal effect in percent, ALOMY: ALOMY = Alopecurus myosuroides; for herbicidal effect in percent, AVEFA: AVEFA = Avena fatua; for herbicidal effect in percent, ECHCG: ECHCG = Echinochloa crus-galli; for herbicidal effect in percent, LOLMU: LOLMU = Lolium multiflorum; for herbicidal effect in percent, SETVI: SETVI = Setaria viridis
Text: 1. Herbicidal Pre-Emergence Action
• Seeds of monocotylidonous and dicotylidonous weed and crop plants are placed in sandy loam in wood fibre pots and covered with soil. The test compounds, formulated in the form of wettable powders (WP), are then, as an aqueous suspension with a water application rate of 600 l/ha (converted), with 0.2% of wetting agent added, applied to the surface of the covering soil in different amounts. • After the treatment, the pots are placed in a greenhouse and kept under good growth conditions for the test plants. The visual assessment of the emergence damage on the test plants is carried out after a trial period of three weeks by comparison with the untreated controls (herbicidal effect in percent: 100% effect=the plants have died, 0% effect=like control plants).

Structure (SMILES) | herbicidal effect in percent, ALOMY (ALOMY) [%] | herbicidal effect in percent, LOLMU (LOLMU) [%] | herbicidal effect in percent, ECHCG (ECHCG) [%] | herbicidal effect in percent, SETVI (SETVI) [%] | herbicidal effect in percent, AVEFA (AVEFA) [%] | herbicidal effect in percent, ALOMY [1] [%] | herbicidal effect in percent, AVEFA [1] [%] | herbicidal effect in percent, ECHCG [1] [%] | herbicidal effect in percent, LOLMU [1] [%] | herbicidal effect in percent, SETVI [1] [%] | pest or weed control at 80 g/ha (SETVI) [%] | herbicidal effect in percent, VIOTR ([1]; VIOTR = Viola tricolor) [%]
CCOC(=O)OC1=C(c2c(CC)cc(C)cc2CC)C(=O)C2CC(CCC(C)=NOC)CC12 (mixture of isomers) [I-c-24] | 90 | 100 | 100 | 100 | 80 | – | – | – | – | – | – | –
CCc1cc(C)cc(CC)c1C1C(=O)C2CC(C(=O)OC)CC2C1=O (stereo not drawn) [I-a-9] | 100 | 100 | 100 | 100 | 90 | 100 | 80 | 100 | 100 | 90 | – | –
Cc1cc(C)c(C2C(=O)C3CC(C4OCCO4)CC3C2=O)c(C)c1 (mixture of isomers) [I-a-30] | – | 90 | 90 | 90 | – | – | – | – | – | – | – | –
CCc1cc(C)cc(CC)c1C1C(=O)C2CC(CCC(C)=NOC)CC2C1=O (racemic) [I-a-42, 2-(2,6-diethyl-4-methylphenyl)-5-[3-methoxyiminobutyl]-tetrahydropentalene-1,3-dione] | 90 | 100 | 100 | – | 100 | – | – | – | – | – | 100 | –
CCc1cc(C)cc(CC)c1C1C(=O)C2CC(C(C)=NOC)CC2C1=O (mixture of isomers) [I-a-34] | 100 | 100 | 100 | 90 | – | – | – | – | – | – | – | –
CCOC(=O)CC1CC2C(=O)C(c3c(CC)cc(C)cc3CC)=C(OC(=O)OCC)C2C1 (mixture of isomers) [I-c-16] | – | – | 80 | 80 | – | – | – | – | – | – | – | –
CCc1cc(C)cc(CC)c1C1=C(OC(=O)C(C)C)C2CC(COC(C)=O)CC2C1=O (mixture of isomers) [I-b-23] | 80 | 90 | 100 | 90 | 90 | – | – | – | – | – | – | –
Cc1cc(C)c(C2C(=O)C3CC(C=NOC(C)C)CC3C2=O)c(C)c1 (mixture of isomers) [I-a-31] | 90 | 90 | 90 | 100 | 80 | – | – | – | – | – | – | –
CCc1cc(C)cc(CC)c1C1C(=O)C2CC(CCC(C)=O)CC2C1=O (stereo not drawn) [I-a-39, 2-(2,6-diethyl-4-methylphenyl)-5-(3-oxobutyl)-tetrahydropentalene-1,3-dione] | 100 | 100 | 100 | – | – | – | – | – | – | – | 100 | –
CCc1cc(C)cc(CC)c1C1C(=O)C2CC(C=O)CC2C1OC(=O)C(C)(C)C (stereo not drawn) [I-b-2, 2-(2,6-diethyl-4-methylphenyl)-5-formyl-3-oxooctahydropentalen-1-yl 2,2-dimethylpropanoate] | – | – | 100 | – | – | 80 | 80 | 100 | 100 | 90 | 100 | –
Cc1cc(C)c(C2C(=O)C3CC(C4OCCCO4)CC3C2=O)c(C)c1 (mixture of isomers) [I-a-32] | – | 90 | 80 | 90 | – | – | – | – | – | – | – | –
CCOC(=O)OC1=C(c2c(CC)cc(C)cc2CC)C(=O)C2CC(CCC#N)CC12 (mixture of isomers) [I-c-21] | – | 100 | 100 | 90 | 100 | – | – | – | – | – | – | –
CCc1cc(C)cc(CC)c1C1C(=O)C2CC(CSC)CC2C1=O (mixture of isomers) [I-a-60] | 90 | 90 | 100 | 90 | 90 | – | – | – | – | – | – | –
CCc1cc(C)cc(CC)c1C1=C(OC(=O)OC(C)C)C2CC(C=NOC)CC2C1=O (mixture of isomers) [I-c-14] | 100 | 100 | 100 | 100 | 100 | – | – | – | – | – | – | –
CCc1cc(C)cc(CC)c1C1C(=O)C2CC(C(C)O)CC2C1=O (mixture of isomers) [I-a-41] | 100 | 100 | 100 | 100 | 100 | – | – | – | – | – | – | –
CCc1cc(C)cc(CC)c1C1=C(OC(=O)C(C)(C)C)C2CC(C3OCCCO3)CC2C1=O (mixture of isomers) [I-b-3] | 100 | 100 | 100 | – | – | 100 | 90 | 100 | 100 | 100 | – | 90
CCc1cc(C)cc(CC)c1C1C(=O)C2CC(C(C)=O)CC2C1=O (mixture of isomers) [I-a-33] | 100 | 100 | 100 | 90 | 100 | – | – | – | – | – | – | –
CCc1cc(C)cc(CC)c1C1=C(OCc2ccccc2)C2CC(CBr)CC2C1=O (mixture of isomers) [I-a-61] | – | 90 | 90 | 90 | – | – | – | – | – | – | – | –
CCOC(=O)OC1=C(c2c(CC)cc(C)cc2CC)C(=O)C2CC(C(C)=NOC)CC12 (mixture of isomers) [I-c-18] | 100 | 100 | 90 | – | 80 | – | – | – | – | – | – | –
CCOC(=O)OC1=C(c2c(CC)cc(C)cc2CC)C(=O)C2CC(C(C)=O)CC12 (mixture of isomers) [I-c-17] | 90 | 100 | 90 | 80 | 90 | – | – | – | – | – | – | –
CCOC(=O)CC1CC2C(=O)C(c3c(CC)cc(C)cc3CC)=C(OCC)C2C1 (mixture of isomers) [I-a-81] | 80 | 80 | 80 | 90 | – | – | – | – | – | – | – | –
CCOC(=O)OC1=C(c2c(CC)cc(C)cc2CC)C(=O)C2CC(COC(C)=O)CC12 (mixture of isomers) [I-c-15] | – | 90 | 90 | 80 | – | – | – | – | – | – | – | –
